Test results as given in patent publication US20120028985A1, “COMBINATIONAL THERAPY FOR TREATING AUTOIMMUNE DISEASE” (4SC AG, priority 2008, published 2012).
Entries after “also recorded” stand apart in the source; their conditions may differ. Marks after values point to notes of the source that are not given here.

What was measured:
DBA1/J mice = assay: Liver histology in collagen induced arthritis mice; assay type: in vivo; conditions: individual mouse; diseased mice; po, MTX 2.5 mg/kg, Formula (II) 50 mg/kg
Excerpt: Dosing is started, PO (per oral) once daily for 14 days.

Beagle dogs [1] = assay: 13-week repeat dose toxicity in Beagle dogs, combination with methotrexate: clinical biochemistry (ALAT, ASAT); assay type: in vivo; conditions: for ALAT, change as compared to the control group 1 / ASAT, change as compared to the control group 1: 25 mg Formula (II)/kg/day and/or 10/2.5 mg MTX/kg/week, p.o.
Protocol: For laboratory examinations blood samples were taken from the vena cephalica or vena saphena magna from animals fasted overnight. Serum samples were collected into tubes for biochemical tests. Clinical biochemistry parameters from venous blood were determined at the times listed below:
Prior to study start: all animals of a pool of 52 dogs […]
At the end of the recovery period: all 8 recovery animals included in this study
Clinical biochemistry parameters (e.g. bile acids, alanine aminotransferase=ALAT, alkaline phosphatise=aP, aspartate aminotransferase=ASAT, gamma-glutamyl-transferase=Gamma-GT, glutamate dehydrogenase=GLDH, creatine kinase=CK) were measured using KONELAB 30i instrument (Thermo Fisher Scientific, 63303 Dreieich, Germany) as U/L (unit/liter) serum.

[2] = Toxicokinetics of formula (II) and methotrexate after individual and concomitant administration to Beagle dogs; assay type: in vivo; conditions: Beagle, dog, plasma, po, mean
Beagle dogs [3] = test system: Beagle dogs
Excerpt: The animals were randomly allocated to five test groups employing a pseudo-random body weight stratification procedure that yielded groups with approximately equal mean body weights. […] A special focus of the study was to study the influence of the combination treatment on liver toxicity.

[4] = female, 2.5 mg/kg, Group 3, methotrexate alone 2.5 mg/kg (reduced from 10), week 13, female Beagle dogs
[5] = female, 2.5 mg/kg, Group 4 (+10SC, in combination with 10 mg/kg formula (II)), methotrexate 2.5 mg/kg (reduced from 10), week 13, female Beagle dogs
[6] = female, 2.5 mg/kg, Group 5 (+25SC, in combination with 25 mg/kg formula (II)), methotrexate 2.5 mg/kg (reduced from 10), week 13, female Beagle dogs
[7] = female, 10 mg/kg, Group 3, methotrexate 10 mg/kg alone, day 1, female Beagle dogs
[8] = female, 10 mg/kg, Group 4 (+10SC, in combination with 10 mg/kg formula (II)), methotrexate 10 mg/kg, day 1, female Beagle dogs
[9] = female, 10 mg/kg, Group 5 (+25SC, in combination with 25 mg/kg formula (II)), methotrexate 10 mg/kg, day 1, female Beagle dogs
[10] = male, 2.5 mg/kg, Group 3, methotrexate alone 2.5 mg/kg (reduced from 10), week 13, male Beagle dogs
[11] = male, 2.5 mg/kg, Group 4 (+10SC, in combination with 10 mg/kg formula (II)), methotrexate 2.5 mg/kg (reduced from 10), week 13, male Beagle dogs
[12] = male, 2.5 mg/kg, Group 5 (+25SC, in combination with 25 mg/kg formula (II)), methotrexate 2.5 mg/kg (reduced from 10), week 13, male Beagle dogs
[13] = male, 10 mg/kg, Group 3, methotrexate 10 mg/kg alone, day 1, male Beagle dogs
[14] = male, 10 mg/kg, Group 4 (+10SC, in combination with 10 mg/kg formula (II)), methotrexate 10 mg/kg, day 1, male Beagle dogs
[15] = male, 10 mg/kg, Group 5 (+25SC, in combination with 25 mg/kg formula (II)), methotrexate 10 mg/kg, day 1, male Beagle dogs

Which results are given for CN(Cc1cnc2nc(N)nc(N)c2n1)c1ccc(C(=O)N[C@@H](CCC(=O)O)C(=O)O)cc1 [MTX, methotrexate, reference compound]?
Liver Histology, Observations (DBA1/J mice): Minimal glycogen depletion, hepatocyte; also recorded: Mild glycogen depletion, hepatocyte; also recorded: Normal; also recorded: Minimal multifocal subacute inflammation; Changes in the biochemical parameters (Beagle dogs [1]; Beagle dogs, 13 weeks oral, serum): pronounced and statistically significant (at p≦0.01) changes in the biochemical parameters of ALAT, ASAT, CK, GLDH as well as bile acids; ALAT, change as compared to the control group 1 (Beagle dogs [1]; Test day 37, females): +190%; ASAT, change as compared to the control group 1 (Beagle dogs [1]; Test day 37, females): +47** %; ALAT, change as compared to the control group 1 (Beagle dogs [1]; Test day 37, males): none; ASAT, change as compared to the control group 1 (Beagle dogs [1]; Test day 37, males): none; ALAT, change as compared to the control group 1 (Beagle dogs [1]; Test day 93, females): +567%; ASAT, change as compared to the control group 1 (Beagle dogs [1]; Test day 93, females): +34** %; ALAT, change as compared to the control group 1 (Beagle dogs [1]; Test day 93, males): +386%; ASAT, change as compared to the control group 1 (Beagle dogs [1]; Test day 93, males): +55** %; AUC(0-inf) [2, 4]: 2200 ng·h/mL; Cmax [2, 4]: 500 ng/mL; half-life [2, 4]: 2.3 h; AUC(0-inf) [2, 5]: 1900 ng·h/mL; Cmax [2, 5]: 400 ng/mL; half-life [2, 5]: 2.6 h; AUC(0-inf) [2, 6]: 1400 ng·h/mL; Cmax [2, 6]: 200 ng/mL; half-life [2, 6]: 2.7 h; AUC(0-inf) [2, 7]: 5300 ng·h/mL; Cmax [2, 7]: 1100 ng/mL; half-life [2, 7]: 2.4 h; AUC(0-inf) [2, 8]: 7500 ng·h/mL; Cmax [2, 8]: 1700 ng/mL; AUC(0-inf) [2, 9]: 5000 ng·h/mL; Cmax [2, 9]: 1200 ng/mL; half-life [2, 9]: 2 h; AUC(0-inf) [2, 10]: 3000 ng·h/mL; Cmax [2, 10]: 700 ng/mL; half-life [2, 10]: 2.6 h; AUC(0-inf) [2, 11]: 2000 ng·h/mL; Cmax [2, 11]: 400 ng/mL; half-life [2, 11]: 2 h; AUC(0-inf) [2, 12]: 2500 ng·h/mL; Cmax [2, 12]: 600 ng/mL; half-life [2, 12]: 2.1 h; AUC(0-inf) [2, 13]: 6400 ng·h/mL; Cmax [2, 13]: 1800 ng/mL; half-life [2, 13]: 1.6 h; AUC(0-inf) [2, 14]: 6600 ng·h/mL; Cmax [2, 14]: 1700 ng/mL; half-life [2, 14]: 1.6 h; AUC(0-inf) [2, 15]: 5900 ng·h/mL; Cmax [2, 15]: 1200 ng/mL; half-life [2, 15]: 2.2 h; Premature death (Beagle dogs [3]; Beagle dogs, 10 mg MTX/kg body weight/week, oral): found dead in the morning of test day 20; Enteritis in the gastro-intestinal mucosa (Beagle dogs [3]; dog, in vivo, po): most pronounced
